Assay results reported in paper PMC5852498, “Lactomycins A–C, Dephosphorylated Phoslactomycin Derivatives That Inhibit Cathepsin B, from the Marine-Derived Streptomyces sp. ACT232” (Marine Drugs, 2018).
Like-named read-outs stand apart in the source and are kept apart here.

Target: T1, cathepsin B (Bos taurus, UniProt P07688)
T1 construct: gene CTSB; cathepsin B from bovine spleen (Sigma C6286)
Experiment: fluorogenic enzyme assay with Z-Arg-Arg-AMC, pH […] °C
Format: biochemical

| SMILES | IC50 (read-out: IC50) [µM] | IC50 [µM] |
| --- | --- | --- |
| CC[C@H]1C=CC(=O)O[C@H]1/C=C/[C@](O)(CCO)[C@H](O)C[C@@H](O)/C=C\C=C/[C@@H]1CCC[C@H](O)C1 [compound 1, Lactomycin A] | 4.5 |  |
| CC[C@H]1C=CC(=O)O[C@H]1/C=C/[C@](O)(CCN)[C@H](O)C[C@@H](O)/C=C\C=C/[C@@H]1CCC[C@H](O)C1 [compound 2, Lactomycin B] | 0.8 |  |
| CC[C@H]1C=CC(=O)O[C@H]1/C=C/[C@@](C)(O)[C@H](O)C[C@@H](O)/C=C\C=C/[C@@H]1CCC[C@H](O)C1 [compound 3, Lactomycin C] |  | 1.6 |
